# Measurements taken from PubChem BioAssay (NCI).
#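 The compound was tested at five concentrations on cells cultured in 96-well plates, with a 48-hour exposure period. TGI denotes the concentration required for complete inhibition of growth.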
# Key:
# Assay in all cases: NCI anticancer screen, dose series, 48 h
# [1] = test system: 786-0 renal
# [2] = test system: A498 renal
# [3] = test system: A549 NSCLC
# [4] = test system: ACHN renal
# [5] = test system: BT-549 breast
# [6] = test system: CAKI-1 renal
# [7] = test system: CCRF-CEM leukemia
# [8] = test system: COLO 205 colon
# [9] = test system: DU-145 prostate
# [10] = test system: EKVX NSCLC
# [11] = test system: HCC-2998 colon
# [12] = test system: HCT-116 colon
# [13] = test system: HCT-15 colon
# [14] = test system: HL-60(TB) leukemia
# [15] = test system: HOP-62 NSCLC
# [16] = test system: HOP-92 NSCLC
# [17] = test system: HS 578T breast
# [18] = test system: HT29 colon
# [19] = test system: IGROV1 ovarian
# [20] = test system: K-562 leukemia
# [21] = test system: KM12 colon
# [22] = test system: LOX IMVI melanoma
# [23] = test system: M14 melanoma
# [24] = test system: MALME-3M melanoma
# [25] = test system: MCF7 breast
# [26] = test system: MDA-MB-231 breast
# [27] = test system: MDA-MB-435
# [28] = test system: MDA-N
# [29] = test system: MOLT-4 leukemia
# [30] = test system: NCI-H226 lung
# [31] = test system: NCI-H23 lung
# [32] = test system: NCI-H522 lung
# [33] = test system: NCI/ADR-RES ovarian
# [34] = test system: OVCAR-3 ovarian
# [35] = test system: OVCAR-4 ovarian
# [36] = test system: OVCAR-5 ovarian
# [37] = test system: OVCAR-8 ovarian
# [38] = test system: PC-3 prostate
# [39] = test system: RPMI-8226 leukemia
# [40] = test system: RXF 393 renal
# [41] = test system: SF-268 CNS
# [42] = test system: SF-295 CNS
# [43] = test system: SF-539 CNS
# [44] = test system: SK-MEL-2 melanoma
# [45] = test system: SK-MEL-28 melanoma
# [46] = test system: SK-MEL-5 melanoma
# [47] = test system: SK-OV-3 ovarian
# [48] = test system: SN12C renal
# [49] = test system: SNB-19 CNS
# [50] = test system: SNB-75 CNS
# [51] = test system: SR leukemia
# [52] = test system: SW-620 colon
# [53] = test system: T-47D breast
# [54] = test system: TK-10 renal
# [55] = test system: U251 CNS
# [56] = test system: UACC-257 melanoma
# [57] = test system: UACC-62 melanoma
# [58] = test system: UO-31 renal
# [59] = test system: NCI-H460 lung
structure (smiles),measurement,setting,value
COC(=O)c1ccc2cc(O)c(O)cc2c1,TGI,[1],> 100 µM
same,TGI,[2],> 100 µM
same,TGI,[3],> 100 µM
same,TGI,[4],> 100 µM
same,TGI,[5],> 90.6 µM
same,TGI,[6],> 100 µM
same,TGI,[7],> 60.4 µM
same,TGI,[8],> 100 µM
same,TGI,[9],> 100 µM
same,TGI,[10],> 100 µM
same,TGI,[11],> 100 µM
same,TGI,[12],> 100 µM
same,TGI,[13],> 100 µM
same,TGI,[14],> 100 µM
same,TGI,[15],> 100 µM
same,TGI,[16],> 100 µM
same,TGI,[17],> 100 µM
same,TGI,[18],> 100 µM
same,TGI,[19],> 100 µM
same,TGI,[20],> 100 µM
same,TGI,[21],> 100 µM
same,TGI,[22],> 100 µM
same,TGI,[23],> 100 µM
same,TGI,[24],> 79 µM
same,TGI,[25],> 100 µM
same,TGI,[26],> 100 µM
same,TGI,[27],> 100 µM
same,TGI,[28],> 100 µM
same,TGI,[29],> 68.8 µM
same,TGI,[30],> 100 µM
same,TGI,[31],> 82 µM
same,TGI,[32],> 64.7 µM
same,TGI,[33],> 78.2 µM
same,TGI,[34],> 100 µM
same,TGI,[35],> 100 µM
same,TGI,[36],> 100 µM
same,TGI,[37],> 91.3 µM
same,TGI,[38],> 100 µM
same,TGI,[39],> 100 µM
same,TGI,[40],> 100 µM
same,TGI,[41],> 81.1 µM
same,TGI,[42],> 100 µM
same,TGI,[43],> 100 µM
same,TGI,[44],> 100 µM
same,TGI,[45],> 100 µM
same,TGI,[46],> 70.2 µM
same,TGI,[47],> 100 µM
same,TGI,[48],> 100 µM
same,TGI,[49],> 100 µM
same,TGI,[50],> 100 µM
same,TGI,[51],> 60 µM
same,TGI,[52],> 100 µM
same,TGI,[53],> 100 µM
same,TGI,[54],> 100 µM
same,TGI,[55],> 100 µM
same,TGI,[56],> 96.7 µM
same,TGI,[57],> 79.3 µM
same,TGI,[58],55.3 µM
CN(C)C=Nc1ccc2c3c(cccc13)-c1ccccc1-2,TGI,[1],26 µM
same,TGI,[2],21.7 µM
same,TGI,[3],23.7 µM
same,TGI,[4],31.6 µM
same,TGI,[5],32 µM
same,TGI,[7],17.2 µM
same,TGI,[8],30.9 µM
same,TGI,[9],25.7 µM
same,TGI,[10],22.4 µM
same,TGI,[12],28.7 µM
same,TGI,[13],24.1 µM
same,TGI,[14],23.2 µM
same,TGI,[15],29.5 µM
same,TGI,[16],24.9 µM
same,TGI,[17],24.9 µM
same,TGI,[18],21.6 µM
same,TGI,[19],28.8 µM
same,TGI,[20],22.1 µM
same,TGI,[22],28.3 µM
same,TGI,[23],22.1 µM
same,TGI,[24],34.6 µM
same,TGI,[25],30.7 µM
same,TGI,[26],28.2 µM
same,TGI,[27],28.3 µM
same,TGI,[28],27.6 µM
same,TGI,[29],24.8 µM
same,TGI,[30],22.8 µM
same,TGI,[31],32.9 µM
same,TGI,[32],18.8 µM
same,TGI,[33],31.4 µM
same,TGI,[34],28.9 µM
same,TGI,[35],31.6 µM
same,TGI,[36],23.1 µM
same,TGI,[37],29.8 µM
same,TGI,[38],26.3 µM
same,TGI,[39],38.9 µM
same,TGI,[40],21 µM
same,TGI,[41],26.8 µM
same,TGI,[42],27.9 µM
same,TGI,[43],24.5 µM
same,TGI,[44],31.1 µM
same,TGI,[45],31.9 µM
same,TGI,[46],28.1 µM
same,TGI,[47],26.5 µM
same,TGI,[48],25.1 µM
same,TGI,[49],27.4 µM
same,TGI,[50],28.9 µM
same,TGI,[51],26.3 µM
same,TGI,[53],31.3 µM
same,TGI,[54],26.7 µM
same,TGI,[55],26.2 µM
same,TGI,[56],31.9 µM
same,TGI,[57],38.8 µM
same,TGI,[58],19.6 µM
COC(=O)C1C(O)C(C)C(O)C(C)(O)C=C(C)C2=C3C(=C(C)C(=O)c4c(O)c(c(C)c(OC(C)=O)c43)NC(=O)C(C)=C/C=C\C(C)(O)C(O)C(C)C1O)OCO2 (centres undefined),TGI,[1],> 100 µM
same,TGI,[2],> 100 µM
same,TGI,[3],> 100 µM
same,TGI,[4],> 100 µM
same,TGI,[5],> 100 µM
same,TGI,[7],> 100 µM
same,TGI,[8],69.7 µM
same,TGI,[9],> 100 µM
same,TGI,[10],> 100 µM
same,TGI,[11],> 100 µM
same,TGI,[12],> 100 µM
same,TGI,[13],> 100 µM
same,TGI,[14],> 100 µM
same,TGI,[15],> 100 µM
same,TGI,[16],> 100 µM
same,TGI,[17],> 100 µM
same,TGI,[18],> 100 µM
same,TGI,[19],> 100 µM
same,TGI,[20],> 100 µM
same,TGI,[21],> 100 µM
same,TGI,[22],> 100 µM
same,TGI,[23],> 100 µM
same,TGI,[24],74.2 µM
same,TGI,[25],> 100 µM
same,TGI,[26],> 100 µM
same,TGI,[27],> 100 µM
same,TGI,[28],> 100 µM
same,TGI,[29],> 100 µM
same,TGI,[30],> 100 µM
same,TGI,[31],> 100 µM
same,TGI,[59],> 100 µM
same,TGI,[32],> 100 µM
same,TGI,[33],> 100 µM
same,TGI,[34],57 µM
same,TGI,[35],> 100 µM
same,TGI,[36],> 100 µM
same,TGI,[37],> 100 µM
same,TGI,[38],> 100 µM
same,TGI,[39],> 100 µM
same,TGI,[40],> 100 µM
same,TGI,[41],> 100 µM
same,TGI,[42],> 100 µM
same,TGI,[43],> 100 µM
same,TGI,[44],> 100 µM
same,TGI,[45],> 100 µM
same,TGI,[46],47.7 µM
same,TGI,[47],> 100 µM
same,TGI,[48],> 100 µM
same,TGI,[49],> 100 µM
same,TGI,[50],> 100 µM
same,TGI,[51],> 100 µM
same,TGI,[52],> 100 µM
same,TGI,[53],> 100 µM
same,TGI,[54],> 100 µM
same,TGI,[55],> 100 µM
same,TGI,[56],78 µM
same,TGI,[57],> 100 µM
same,TGI,[58],> 100 µM
Cc1cc2nc3[nH]c4c(Cl)cc(Cl)cc4c3nc2cc1C,TGI,[1],> 100 µM
same,TGI,[2],> 100 µM
same,TGI,[3],> 100 µM
same,TGI,[4],> 100 µM
same,TGI,[5],> 100 µM
same,TGI,[6],> 100 µM
same,TGI,[7],> 100 µM
same,TGI,[8],> 100 µM
same,TGI,[9],> 100 µM
same,TGI,[10],> 100 µM
same,TGI,[12],> 100 µM
same,TGI,[13],> 100 µM
same,TGI,[14],> 100 µM
same,TGI,[15],> 100 µM
same,TGI,[16],> 100 µM
same,TGI,[17],> 100 µM
same,TGI,[18],> 100 µM
same,TGI,[19],> 100 µM
same,TGI,[20],> 100 µM
same,TGI,[21],> 100 µM
same,TGI,[22],> 100 µM
same,TGI,[23],> 100 µM
same,TGI,[24],> 100 µM
same,TGI,[25],> 100 µM
same,TGI,[26],> 100 µM
same,TGI,[27],> 100 µM
same,TGI,[28],> 100 µM
same,TGI,[29],> 100 µM
same,TGI,[30],> 100 µM
same,TGI,[31],> 100 µM
same,TGI,[59],> 100 µM
same,TGI,[32],> 100 µM
same,TGI,[33],> 100 µM
same,TGI,[34],> 100 µM
same,TGI,[35],> 100 µM
same,TGI,[36],> 100 µM
same,TGI,[37],> 100 µM
same,TGI,[38],> 100 µM
same,TGI,[39],> 100 µM
same,TGI,[40],> 100 µM
same,TGI,[41],> 100 µM
same,TGI,[42],> 100 µM
same,TGI,[43],> 100 µM
same,TGI,[44],> 100 µM
same,TGI,[45],> 100 µM
same,TGI,[46],> 100 µM
same,TGI,[47],> 100 µM
same,TGI,[48],> 100 µM
same,TGI,[49],> 100 µM
same,TGI,[50],42 µM
same,TGI,[51],> 100 µM
same,TGI,[52],> 100 µM
same,TGI,[53],> 100 µM
same,TGI,[54],56.4 µM
same,TGI,[55],> 100 µM
same,TGI,[57],> 100 µM
same,TGI,[58],> 100 µM
Cn1c(CCC2(C)Cc3ccccc3C(=O)O2)cc2ccccc2c1=O (centres undefined),TGI,[1],> 100 µM
same,TGI,[2],> 100 µM
same,TGI,[3],> 100 µM
same,TGI,[5],44 µM
same,TGI,[6],51.6 µM
same,TGI,[7],27 µM
same,TGI,[8],84 µM
same,TGI,[9],59.8 µM
same,TGI,[11],> 100 µM
same,TGI,[13],> 100 µM
same,TGI,[14],> 100 µM
same,TGI,[15],48 µM
same,TGI,[16],> 100 µM
same,TGI,[17],> 100 µM
same,TGI,[19],86.6 µM
same,TGI,[21],23.3 µM
same,TGI,[23],33.5 µM
same,TGI,[24],> 100 µM
same,TGI,[25],56.3 µM
same,TGI,[26],> 100 µM
same,TGI,[27],41.9 µM
same,TGI,[28],49.8 µM
same,TGI,[30],54.7 µM
same,TGI,[31],83 µM
same,TGI,[59],76.8 µM
same,TGI,[32],44.2 µM
same,TGI,[33],> 100 µM
same,TGI,[34],54 µM
same,TGI,[35],> 100 µM
same,TGI,[36],> 100 µM
same,TGI,[37],> 100 µM
same,TGI,[38],46.5 µM
same,TGI,[39],48 µM
same,TGI,[40],64.4 µM
same,TGI,[42],> 100 µM
same,TGI,[43],74.4 µM
same,TGI,[44],64.9 µM
same,TGI,[45],76.6 µM
same,TGI,[46],30.9 µM
same,TGI,[47],65.7 µM
same,TGI,[48],> 100 µM
same,TGI,[49],> 100 µM
same,TGI,[50],58.3 µM
same,TGI,[51],> 100 µM
same,TGI,[53],83.3 µM
same,TGI,[55],> 100 µM
same,TGI,[58],37.7 µM
